{"source": "patent US9839614B2", "about": "“Nanoparticle and polymer formulations for thyroid hormone analogs, antagonists, and formulations and uses thereof” (NANOPHARMACEUTICALS LLC, priority 2009, dated 2017)", "key": {"[1]": {"tested_on": "M21 cells", "settings": "20 ug/ml; 0, 5, and 10 Gy; cited from earlier work"}, "[2]": {"tested_on": "chick chorioallantoic membrane (CAM) blood vessel branching", "assay": "Chorioallantoic membrane (CAM) model of angiogenesis", "format": "in vivo", "settings": "for generation of new blood vessels from existing vessels promoted: 10^−7-10^−9M", "description": "In vivo neovascularization was examined by methods described previously. 9-12 Ten-day-old chick embryos were purchased from SPAFAS (Preston, Conn.) and incubated at 37° C. with 55% relative humidity. A hypodermic needle was used to make a small hole in the shell concealing the air sac, and a second hole was made on the broad side of the egg, directly over an avascular portion of the embryonic membrane that was identified by candling. A false air sac was created beneath the second hole by the application of negative pressure at the first hole, causing the CAM to separate from the shell. A window approximately 1.0 cm^2 was cut in the shell over the dropped CAM with a small-crafts grinding wheel (Dremel, division of Emerson Electric Co.), allowing direct access to the underlying CAM. […] Sterile disks of No. 1 filter paper (Whatman International) were pretreated with 3 mg/mL cortisone acetate and 1 mmol/L PTU and air dried under sterile conditions. Thyroid hormone, hormone analogs, FGF2 or control solvents, and inhibitors were then applied to the disks and the disks allowed to dry. The disks were then suspended in PBS and placed on growing CAMs. […] At 24 hours, the MAPK cascade inhibitor PD 98059 was also added to CAMs topically by means of the filter disks.\nAfter incubation at 37° C. with 55% relative humidity for 3 days, the CAM tissue directly beneath each filter disk was resected from control and treated CAM samples. Tissues were washed 3× with PBS, placed in 35-mm Petri dishes (Nalge Nunc), and examined under an SV6 stereomicroscope (Zeiss) at X50 magnification. Digital images of CAM sections exposed to filters were collected using a 3-charge-coupled device color video camera system (Toshiba) and analyzed with Image-Pro software (Media Cybernetics). The number of vessel branch points contained in a circular region equal to the area of each filter disk were counted. One image was counted in each CAM preparation, and findings from 8 to 10 CAM preparations were analyzed for each treatment condition (thyroid hormone or analogs, FGF2, FGF2 antibody, PD 98059). In addition, each experiment was performed 3 times. The resulting angiogenesis index is the mean±SEM of new branch points."}, "[3]": {"tested_on": "ECV304 endothelial cells", "assay": "FGF2 release from ECV304 endothelial cells (ELISA)", "format": "cell-based", "description": "ECV304 endothelial cells were cultured in M199 medium supplemented with 10% fetal bovine serum. […] After 72 hours, the supernatants were harvested and assays for FGF performed without dilution using a commercial ELISA system (R&D Systems) (See Davis et al., Circ Res 94:1500-1506 (2004))."}, "[4]": {"tested_on": "ERK1/2", "assay": "MAPK activation in ECV304 cells (nuclear phosphorylated ERK1/2 immunoblot)", "format": "cell-based", "settings": "for effect on T4-induced ERK1/2 (MAPK) activation: PD 98059 30 μmol/L or CGP41251 100 nmol/L, 30 minutes before T4", "description": "ECV304 endothelial cells were cultured in M199 medium with 0.25% hormone-depleted serum 13 for 2 days. […] Nuclear fractions were pre-pared from all samples by the method reported previously (see Li et al., Carcinogenesis 29:62-69 (2008)), the proteins separated by polyacrylamide gel electrophoresis, and transferred to membranes for immunoblotting with antibody to phosphorylated ERK 1/2."}, "[5]": {"tested_on": "FGF2 cDNA", "assay": "RT-PCR of FGF2 in ECV304 cells", "format": "cell-based", "settings": "T4 10^−7 mol/L, 6 to 48 hours", "description": "RNA (1 μg) was subjected to reverse transcription-polymerase chain reaction (RT-PCR) using the Access RT-PCR system (Promega). Total RNA was reverse transcribed into cDNA at 48° C. for 45 minutes, then denatured at 94° C. for 2 minutes. Second-strand synthesis and PCR amplification were performed for 40 cycles with denaturation at 94° C. for 30 s, annealing at 60° C. for 60 s, and extension at 68° C. for 120 s, with final ex-tension for 7 minutes at 68° C. after completion of all cycles. PCR primers for FGF2 were as follows: FGF2 sense strand 5′-[…]-3′ (SEQ ID NO:1), antisense strand 5′ […]-3′ (SEQ ID NO:2); the length of the PCR product was 734 bp. Primers for GAPDH included the sense strand 5′-[…]-3′ (SEQ ID NO:3), and antisense strand 5′-[…]-3′ (SEQ ID NO:4); the length of the PCR product was 218 bp. […] The target bands of the gel were quantified using Lablmage software (Kapelan), and the value for [FGF2/GAPDH]X10 calculated for each time point."}, "[6]": {"settings": "estimated; cited from earlier work"}, "[7]": {"tested_on": "glioblastoma (GBM)", "settings": "mild hypothyroidism induced by PTU; cited from earlier work"}, "[8]": {"tested_on": "Morris 7800 hepatoma neoplasms", "settings": "PTU 0.1%; cited from earlier work"}, "[9]": {"tested_on": "transplantable liver tumor", "settings": "cited from earlier work"}, "[10]": {"tested_on": "SF763 glioblastoma cells", "settings": "85 μM, 16 hours at 37° C., cited from earlier work"}, "[11]": {"tested_on": "V-79 cells", "settings": "reduced from 3.4; cited from earlier work"}, "[12]": {"settings": "cited from earlier work"}}}
{"molecule": "CNTO 95: human anti-αv integrin monoclonal antibody", "values": [{"measurement": "increase in sensitivity (in vitro apoptosis)", "setting": "[1]", "value": 2, "unit": "fold"}]}
{"molecule": "COc1cccc(-c2cc(=O)c3ccccc3o2)c1N", "note": "[PD 98059]", "values": [{"measurement": "effect on T3 + T4 stimulated blood vessel branching", "setting": "[2]; 3 μmol/L PD 98059", "value": "completely blocked"}, {"measurement": "effect on FGF2 stimulation of branch formation", "setting": "[2]; PD 98059 with FGF2 1 μg/mL", "value": "effectively blocked"}, {"measurement": "FGF2 (pg/mL/10^6 cells)", "setting": "[3]; T3 + PD 98059 (2 μmol/L)", "value": "28.4 ± 3.2", "unit": "pg/mL/10^6 cells"}, {"measurement": "FGF2 (pg/mL/10^6 cells)", "setting": "[3]; T3 + PD 98059 (20 μmol/L)", "value": "21.7 ± 3.5", "unit": "pg/mL/10^6 cells"}, {"measurement": "FGF2 (pg/mL/10^6 cells)", "setting": "[3]; T4 + PD 98059 (2 μmol/L)", "value": "26.5 ± 4.5", "unit": "pg/mL/10^6 cells"}, {"measurement": "FGF2 (pg/mL/10^6 cells)", "setting": "[3]; T4 + PD 98059 (20 μmol/L)", "value": "23.2 ± 4.8", "unit": "pg/mL/10^6 cells"}, {"measurement": "effect on T4-induced ERK1/2 (MAPK) activation", "setting": "[4]", "value": "inhibited"}]}
{"molecule": "N[C@@H](Cc1cc(I)c(Oc2cc(I)c(O)c(I)c2)c(I)c1)C(=O)O", "note": "[Compound T4, L-thyroxine]", "values": [{"measurement": "generation of new blood vessels from existing vessels promoted", "setting": "[2]", "value": "two-to three-fold"}, {"measurement": "combined effect of sub-maximal hormone and growth factor", "setting": "[2]; T4 0.05 μmol/L + FGF2 0.5 μg/mL", "value": "additive"}, {"measurement": "stimulation of angiogenesis", "setting": "[2]; T4, anti-FGF2 experiments (FIG. 5A)", "value": 1.5, "unit": "fold"}, {"measurement": "time of maximal level of nuclear phosphorylated ERK1/2", "setting": "[4]; T4 10^−7 mol/L", "value": 30, "unit": "min"}, {"measurement": "time to appearance of phosphorylated ERK1/2 in cell nuclei", "setting": "[4]; T4 10^−7 mol/L", "value": "≤ 15", "unit": "min"}, {"measurement": "FGF2 cDNA abundance corrected for GAPDH", "setting": "[5]", "value": "increase in abundance of FGF2 cDNA"}, {"measurement": "pKa, COOH (carboxylic acid) group", "setting": "[6]", "value": "~2.0"}, {"measurement": "pKa, NH2 (amino) group", "setting": "[6]", "value": "approximately 9.0"}]}
{"molecule": "CCCc1cc(=O)[nH]c(=S)[nH]1", "note": "[PTU, 6-N-propyl-2-thiouracil]", "values": [{"measurement": "improvement of duration of survival", "setting": "[7]", "value": 3, "unit": "fold"}, {"measurement": "increase in survival", "setting": "[8]", "value": "approximately 1.3 fold"}, {"measurement": "time needed to grow from approximately 270 mm^3 to 900 mm^3", "setting": "[9]; 10 Gy of x-rays plus 0.05% PTU, control 6.2, x-rays alone 11.2", "value": 17.8, "unit": "days"}, {"measurement": "tumor growth rate versus control", "setting": "[9]; PTU alone", "value": "no difference in growth rate"}]}
{"molecule": "CC(C)[C@H]1C(=O)N[C@@H](CCCN=C(N)N)C(=O)NCC(=O)N[C@@H](CC(=O)O)C(=O)N[C@H](Cc2ccccc2)C(=O)N1C", "note": "[EMD121974]", "values": [{"measurement": "increase of α", "setting": "[10]", "value": 4.4, "unit": "fold"}, {"measurement": "α component in the LQ survival equation", "setting": "[10]; from approximately 0.04", "value": 0.18, "unit": "Gy^−1"}]}
{"molecule": "CO[C@@H]1[C@H](N(C)C(=O)c2ccccc2)C[C@H]2O[C@]1(C)n1c3ccccc3c3c4c(c5c6ccccc6n2c5c31)C(=O)NC4", "note": "[CGP41251]", "values": [{"measurement": "effect on T4-induced ERK1/2 (MAPK) activation", "setting": "[4]", "value": "blocked the effect of the hormone on MAPK activation"}]}
{"molecule": "NC(=O)c1cccc(N)c1", "note": "[Compound 3AB, 3-aminobenzamide]", "values": [{"measurement": "Dq value", "setting": "[11]", "value": 1, "unit": "Gy"}, {"measurement": "inhibition of PLDR", "setting": "[12]", "value": "~70", "unit": "%"}]}
{"molecule": "N[C@@H](Cc1cc(I)c(Oc2ccc(O)c(I)c2)c(I)c1)C(=O)O", "note": "[Compound T3, 3,5,3′-triiodo-L-thyronine]", "values": [{"measurement": "generation of new blood vessels from existing vessels promoted", "setting": "[2]", "value": "two-to three-fold"}, {"measurement": "FGF2 (pg/mL/10^6 cells)", "setting": "[3]; T3 0.01 μmol/L, 3 days", "value": "98.8 ± 0.5", "unit": "pg/mL/10^6 cells"}]}
